# Results reported in patent US11684614B2, “Formulations of hydroxypyridonate actinide/lanthanide decorporation agents” (priority 2017, dated 2023).
# Values joined by “and” are separate entries in the source; they are usually repeats but may differ in a detail not shown here. Equal values may be shown once.
# Experiment: Repeated-treatment efficacy for removing an intravenous dose of 238Pu (excretion, tissue retention, clinical observations), female and male arms
# Format: in vivo, Swiss-Webster mice
# Settings: listed as 3,4,3-LI(1,2-HOPO)
# Experimental: The objective of this study was to characterize the efficacy of 3,4,3-L1(1,2-HOPO) at enhancing elimination from an internal plutonium burden in female and male Swiss-Webster mice administered a soluble citrate complex of ^238Pu and treated multiple times, starting at 24 hours after the exposure. Efficacy was evaluated by comparing the tissue contents, urinary and fecal excretions of ^238Pu in treated animals versus untreated animals.
# The medical countermeasure 3,4,3-L1(1,2-HOPO) was administered parenterally (ip) or orally (po) via consecutive injections or gavages (six daily or twelve twice daily) starting at 24 hours post contamination at the following four selected doses: 30 μmol/kg ip, 150 μmol/kg po, 300 μmol/kg po, and 600 μmol/kg po (equivalent to respective approximate human doses range of […], using the accepted conversion system of mouse doses into human equivalent doses—HED—based on body surface area). Oral doses also included the permeability enhancer selected during formulation development work.
# • Challenge isotope: ^238Pu • Challenge dose: 25 nCi (i.e., approximately 0.8 μCi/kg) • Route of contamination: Intravenous (iv) tail-vein • Route of treatment: Intraperitoneal Injection (ip) or Oral (po) • Frequency of treatment: Multiple (once- or twice-daily for 6 days) doses, starting 24 hr postcontamination • Treatment dose calculation: Dose calculations (mg/kg or μmol/kg) for the decorporation agent were based on the individual body weight measured after contamination. • Study Duration: 11 days, in-life
# c. […] Test article and control dose formulations were prepared within 1 day of dose administration, by weighing out the appropriate amount of test article, dispersing in vehicle. For ip solutions, the test article was used alone, while for oral suspensions, a mixture of test article and excipient (90:10, w:w) was used. The pH was adjusted to 7.0-7.4 for ip administration and 5.0-5.5 for oral administration with sterile NaOH. Dose formulations were prepared at room temperature and filter-sterilized. • Storage: 2-8° C.; refrigerated; protected from light. • Characterization: The concentration of each test article formulation was verified by high-performance liquid chromatography-mass spectrometry. • Test Article Handling: Test, reference, and control article formulations were handled with the use of eye protection, gloves, and a protective laboratory coat. • Correct Dose Assurance: The test article was weighed with calibrated balances. The administration of each dose formulation was properly documented, and the amount administered to each animal recorded.
# e. Experimental Procedures (In-Life Evaluations and Euthanasia) • Contamination: Single administration by intravenous (iv) tail-vein injection (0.2 mL injection volume) under isoflurane anesthesia. Three standard 0.2 mL injections were performed into polyethylene bottles and pre-loaded with aliquots of concentrated nitric acid on each injection day. Six female and six male mice were culled for necropsy 1 hr post-contamination and were used as standards. A11 standards were processed and counted together with the final samples to allow verification of the contamination dose. • Dose Administration: Single administration by intraperitoneal injection (ip) or oral gavage (po) under isoflurane anesthesia. • Mortality/Morbidity: Assessed at least once daily. • Clinical Observations: Recorded once daily (4 hr post-dose on day of treatment), or more often as clinical signs warranted. […]
smiles,measurement,setting,value
"O=C(NCCCN(CCCCN(CCCNC(=O)c1cccc(=O)n1O)C(=O)c1cccc(=O)n1O)C(=O)c1cccc(=O)n1O)c1cccc(=O)n1O [3,4,3-L1(1,2-HOPO)]",% Recovered Dose-Female Animals-Urine per Day-Day 11 Necropsy,"animal group H, day 8, female mice",0.66% and 1.22% and 0.77% and 0.75% and 0.78% and 0.99% and 0.49% and 1.24%
same,% Recovered Dose-Female Animals-Urine per Day-Day 11 Necropsy,"animal group H, day 9, female mice",0.40% and 0.85% and 0.75% and 0.43% and 0.47% and 0.72% and 0.37% and 0.99%
same,% Recovered Dose-Female Animals-Urine per Day-Day 11 Necropsy,"animal group H, day 10, female mice",0.31% and 0.47% and 0.39% and 0.29% and 0.19% and 0.50% and 0.25% and 0.54%
same,% Recovered Dose-Female Animals-Urine per Day-Day 11 Necropsy,"animal group H, day 11, female mice",0.25% and 0.49% and 0.32% and 0.27% and 0.37% and 0.52% and 0.29% and 0.67%
same,% Recovered Dose-Female Animals-Urine per Day-Day 11 Necropsy,"animal group I, day 1, female mice",7.77% and 13.56% and 9.39% and 8.83% and 9.40% and 8.09% and 8.07% and 7.99%
same,% Recovered Dose-Female Animals-Urine per Day-Day 11 Necropsy,"animal group I, day 3, female mice",5.15% and 4.91% and 4.95% and 3.52% and 6.42% and 5.63% and 7.70%
same,% Recovered Dose-Female Animals-Urine per Day-Day 11 Necropsy,"animal group I, day 4, female mice",2.76% and 3.63% and 3.08% and 3.06% and 4.72% and 4.39%
same,% Recovered Dose-Female Animals-Urine per Day-Day 11 Necropsy,"animal group I, day 5, female mice",2.07% and 2.10% and 1.73% and 1.67% and 1.85% and 1.81% and 1.59%
same,% Recovered Dose-Female Animals-Urine per Day-Day 11 Necropsy,"animal group I, day 6, female mice",1.80% and 2.08% and 1.82% and 1.64% and 2.11% and 1.61% and 1.48%
same,% Recovered Dose-Female Animals-Urine per Day-Day 11 Necropsy,"animal group I, day 7, female mice",1.20% and 1.23% and 1.07% and 1.17% and 1.43% and 1.94% and 1.45%
same,% Recovered Dose-Female Animals-Urine per Day-Day 11 Necropsy,"animal group I, day 8, female mice",0.79% and 1.03% and 0.78% and 0.83% and 0.67% and 0.96% and 0.90%
same,% Recovered Dose-Female Animals-Urine per Day-Day 11 Necropsy,"animal group I, day 9, female mice",0.82% and 0.67% and 0.59% and 0.61% and 0.55% and 0.69% and 0.52%
same,% Recovered Dose-Female Animals-Urine per Day-Day 11 Necropsy,"animal group I, day 10, female mice",0.78% and 0.49% and 0.52% and 0.32% and 0.31% and 0.55% and 0.45%
same,% Recovered Dose-Female Animals-Urine per Day-Day 11 Necropsy,"animal group I, day 11, female mice",0.67% and 0.65% and 0.58% and 0.43% and 0.46% and 0.89% and 0.44%
same,% Recovered Dose-Female Animals-Urine per Day-Day 11 Necropsy,"animal group L, day 1, female mice",5.35% and 10.51% and 3.65% and 5.09% and 9.71% and 8.91% and 9.38% and 5.37%
same,% Recovered Dose-Female Animals-Urine per Day-Day 11 Necropsy,"animal group L, day 2, female mice",9.62% and 11.11% and 5.95% and 8.55% and 8.68% and 12.54% and 10.49% and 9.01%
same,% Recovered Dose-Female Animals-Urine per Day-Day 11 Necropsy,"animal group L, day 3, female mice",5.07% and 4.30% and 2.41% and 3.68% and 5.39% and 4.44% and 3.21% and 5.10%
same,% Recovered Dose-Female Animals-Urine per Day-Day 11 Necropsy,"animal group L, day 4, female mice",4.52% and 3.28% and 1.82% and 3.38% and 3.96% and 3.67% and 4.12% and 5.10%
same,% Recovered Dose-Female Animals-Urine per Day-Day 11 Necropsy,"animal group L, day 5, female mice",2.41% and 2.57% and 6.05% and 2.26% and 2.77% and 2.39% and 2.74% and 3.54%
same,% Recovered Dose-Female Animals-Urine per Day-Day 11 Necropsy,"animal group L, day 6, female mice",1.58% and 1.95% and 4.31% and 3.12% and 2.44% and 1.42% and 1.86% and 2.87%
same,% Recovered Dose-Female Animals-Urine per Day-Day 11 Necropsy,"animal group L, day 7, female mice",2.68% and 4.39% and 2.50% and 2.41% and 2.29% and 1.58% and 2.14% and 2.03%
same,% Recovered Dose-Female Animals-Urine per Day-Day 11 Necropsy,"animal group L, day 8, female mice",2.01% and 6.27% and 1.63% and 1.89% and 1.73% and 1.02% and 1.29% and 1.12%
same,% Recovered Dose-Female Animals-Urine per Day-Day 11 Necropsy,"animal group L, day 9, female mice",0.99% and 3.81% and 0.96% and 1.05% and 0.50% and 0.53% and 0.57%
same,% Recovered Dose-Female Animals-Urine per Day-Day 11 Necropsy,"animal group L, day 10, female mice",1.29% and 1.70% and 0.71% and 1.04% and 0.44% and 0.60% and 0.41%
same,% Recovered Dose-Female Animals-Urine per Day-Day 11 Necropsy,"animal group L, day 11, female mice",0.70% and 1.28% and 0.58% and 0.75% and 0.68% and 0.40% and 0.72% and 0.59%
same,% Recovered Dose-Female Animals-Urine per Day-Day 11 Necropsy,"animal group M, day 1, female mice",8.44% and 9.22% and 6.58% and 5.72% and 8.33% and 7.11% and 8.76% and 7.62%
same,% Recovered Dose-Female Animals-Urine per Day-Day 11 Necropsy,"animal group M, day 2, female mice",6.23% and 7.89% and 7.02% and 10.02% and 10.31% and 12.05% and 7.08% and 9.14%
same,% Recovered Dose-Female Animals-Urine per Day-Day 11 Necropsy,"animal group M, day 3, female mice",2.30% and 3.50% and 4.87% and 4.65% and 3.13% and 1.94% and 3.83% and 3.56%
same,% Recovered Dose-Female Animals-Urine per Day-Day 11 Necropsy,"animal group M, day 4, female mice",3.18% and 2.79% and 3.46% and 4.28% and 3.48% and 2.77% and 2.90% and 3.40%
same,% Recovered Dose-Female Animals-Urine per Day-Day 11 Necropsy,"animal group M, day 5, female mice",1.90% and 2.00% and 3.07% and 4.53% and 2.38% and 1.31% and 2.10% and 2.52%
same,% Recovered Dose-Female Animals-Urine per Day-Day 11 Necropsy,"animal group M, day 6, female mice",2.20% and 3.65% and 3.85% and 2.48% and 2.57% and 1.91% and 3.39% and 2.63%
same,% Recovered Dose-Female Animals-Urine per Day-Day 11 Necropsy,"animal group M, day 7, female mice",1.09% and 4.12% and 3.24% and 1.63% and 2.05% and 0.95% and 2.29% and 2.08%
same,% Recovered Dose-Female Animals-Urine per Day-Day 11 Necropsy,"animal group M, day 8, female mice",1.16% and 1.96% and 1.85% and 1.17% and 1.59% and 1.23% and 1.36% and 1.47%
same,% Recovered Dose-Female Animals-Urine per Day-Day 11 Necropsy,"animal group M, day 9, female mice",0.89% and 0.80% and 0.95% and 0.56% and 0.83% and 0.91% and 1.12% and 1.20%
same,% Recovered Dose-Female Animals-Urine per Day-Day 11 Necropsy,"animal group M, day 10, female mice",0.48% and 0.61% and 0.71% and 0.70% and 1.03% and 1.20% and 1.18%
